Values after ≈ are worked out from the molar mass of the structure shown.
Key:
[1] = biological target: T1, human C5a receptor (CD88) (Homo sapiens, UniProt P21730); test: Agonism in enzyme release assay without C5a stimulus (Example 32); assay type: cell-based; settings: concentration applied 7.1 μM
T1 construct: expressed in transfected cells; host or cells: rat basophilic leukemia (RBL) cells, stably transfected
T1 sequence (P21730 1-350): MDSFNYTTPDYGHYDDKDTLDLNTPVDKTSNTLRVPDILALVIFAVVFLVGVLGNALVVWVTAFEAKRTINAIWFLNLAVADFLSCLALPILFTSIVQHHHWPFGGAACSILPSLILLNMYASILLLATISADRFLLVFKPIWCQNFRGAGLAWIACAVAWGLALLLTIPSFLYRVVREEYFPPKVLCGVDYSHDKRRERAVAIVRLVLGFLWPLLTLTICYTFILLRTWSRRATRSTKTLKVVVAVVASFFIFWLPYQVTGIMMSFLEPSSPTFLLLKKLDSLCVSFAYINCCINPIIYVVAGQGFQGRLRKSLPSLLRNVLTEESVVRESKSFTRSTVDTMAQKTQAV
Method: The assay has been described by Köhl (Köhl 1997 The Anaphylatoxins. In: Dodds, A. W., Sim, R. B. (Eds.), Complement: A Practical Approach. Oxford: 135). Basophile leukemia cells from rats (RBL), which express the human C5a receptor (CD88), are cultivated in DMEM with 10% fetal calf serum, 100 U/ml penicillin, 100 μg/ml streptomycin and 2 mM glutamin (all constituents are from Biochrome, Berlin) at 37° C. and with 10% CO2 until a confluent layer is obtained. All following details refer to a tissue culture flask with 75 cm^2 surface. The used up medium is removed. The cells are washed with 10 ml PBS (Dulbecco's PBS, Biochrome) and then covered with 3 ml cell dissociation solution (CDS, Sigma). The cells are incubated for 1 minute at room temperature. Then the CDS is removed and the cells are incubated for further 10-15 minutes at 37° C. to detach the cells completely from the flask. 20 μl solution of the compound to be testet are used in the assay. The assay solution must not contain more than 2.8% DMSO. The dilution series are prepared in ⅓ or ½ steps. To the 20 μl of the compound solutions 75 μl RBL cells are added which are prepared as follows: After the detachment of the cells from the flask surface they are taken up with 10 ml HAG-CM (20 mM HEPES; 125 mM NaCl, 5 mM KCl, 1 mM CaCl2, 1 mM MgCl2, 0.5 mM glucose, 0.25% BSA. HEPES preparation: 2.3 g/l HEPES salt+2.66 g/l HEPES acid) thermostated at 37° C. The cells are counted and centrifuged (200 g, 10 min). The cell pellet is taken up with pre-heated HAG-CM, and the cell density is adjusted to 2×10^6 Zellen/ml. The cells are incubated for 5 minutes at 37° C. 2.7 μl of a cytochalasin B solution (1000 μg/ml in DMSO, Sigma) are added per ml cell suspension. The Zellen are incubated for another 3 min at 37° C. Then, 75 μl of the cell suspension are added to the 20 μl solution containing the compounds to be tested. Thus a volume of […] per well is obtained. The cells are again incubated for 10 minutes at 37° C. Then 10 μl hrC5a (10.5 nM in HAG-CM, Sigma) are added per well, which is followed by 5 minutes incubation at 37° C. After this the plates are put on ice and centrifuged for 3 minutes at 1200×g and 4° C. 75 μl of the supernatant are added to 100 μl substrate solution (2.7 mg/ml p-nitrophenyl-N-acetyl-b-D-glucosaminide (Sigma) in 42.5 mM sodium acetate, pH 4.5). The plate is incubated for 1 hour at 37° C. Per well 75 μl 0.4 M glycine (pH 10.4) are added. After this the plate can be measured at a wave length of 405 nm. The IC50 value is determined by solving the four parameter equation y=((A−D)/(1+(x/C)^B))+D.
The only difference is the fact that 30 μl of the substance to be tested are mixed with 75 μl of the cell suspension described in example 28. The cells are not pre-incubated and no C5a is added to stimulate enzyme release.

[2] = Solubility in aqueous HEPES buffer by HPLC (Example 33); assay type: physicochemical; settings: kinetic from dmso stock
Method: To determine the solubility the compound to be measured is dissolved (e.g, […] of a 5 mM solution in DMSO) in organic solvent (e.g. 198 μl DMSO) as well as in aqueous buffer solution (e.g. 198 μl HEPES buffer). Both solutions are analyzed via analytical HPLC and the areas under the peaks are compared. The value for the organic solution is taken as 100%.

C5a receptor = biological target: T2, C5a receptor (Homo sapiens, UniProt P21730); test: Binding of 125I-C5a to human C5aR transfected HEK293 cells (Example 27); set-up: expressed in transfected cells; host or cells: HEK293 cells; settings: 125I-C5a tracer, read-out: IC50 for the inhibition of the binding of C5a to the C5a receptor
T2 sequence (P21730 1-350): T1 sequence (P21730 1-350)
Method: The binding studies are done as determination of IC50 values with radioactively labeled C5a (125I) as tracer. For this purpose, human C5aR transfected HEK293 cells are adjusted to a concentration of […]. 30 μl of the cell suspension are added into a microtiter plate. Then the C5a receptor antagonists are added followed by 10 minutes pre-incubation at room temperature. After that, 10 μl of labelled C5a are added (15.000 cpm). The mixture is now incubated over ice for 30 minutes. After this the cells are isolated by means of a filter plate (Millipore MHVB 4510) and washed two times with 100 μl HAG-CM each (see example 32). The cells are dried and, after transferring the filter plate onto the adapter plate (Canberra 6005178), 50 μl/well Microscint 0 are added and the plate is measured in the scintillation counter.

[3] = AB permeability in TC-7 cell based assay (Example 34); assay type: in vitro ADME; settings: human, Caco-2, TC-7 cells, apical pH 6.5 / basolateral pH 7.4, 120 min
Method: Compounds to be tested are prepared at a concentration of 50 μM in HBSS-MES (5 mM, pH 6.5) (from a 10 mM stock solution in 100% DMSO). ^14C-mannitol (about 4 μM) is added and the solution is mixed and centrifuged. The supernatant is added to the apical side of a TC-7 cell culture (passage 15, in 24 well transwell plate) to obtain a DMSO concentration of 1%. At the basolateral side HBSS-HEPES (5 mM, pH 7.4) is placed. Subsequently, the cells are incubated for 120 minutes at 37° C. The integrity of the TC-7 cell layer is checked by means of the added mannitol (Papp <2.5 10^−6 cm/s). The Permeabilität Papp [cm/s] is equal to (VR×CR120)/(Δt×A×(CD,mid−CR,mid)). VR is the volume of the receiver chamber, CR120 the concentration the test compound in the receiver chamber after 120 minutes, Δt the incubation time, A the area of the TC-7 cell layer, CD,mid the midpoint concentration of the test substance in the donor chamber and CR,mid the concentration of the test compound in the receiver chamber.

| Structure (SMILES) | Agonism (% of the maximum enzyme release induced by C5a) [1] [%] | solubility [2] [µM] | IC50 (C5a receptor) [nM] | Papp A→B at 120 min, 50 μM [3] [×10⁻⁶ cm/s] |
| --- | --- | --- | --- | --- |
| CCc1c(N)cc(Cl)c(CC)c1NC(=O)N(Cc1ccc(Cl)cc1)c1ccc(CC(F)(F)F)cc1 [compound 103, 3-(3-amino-5-chloro-2,6-diethyl-phenyl)-1-(4-chloro-benzyl)-1-[4-(2,2,2-trifluoro-ethyl)-phenyl]-urea] | 0.00 | 7 (≈ 3.67 µg/mL) | 58.6 |  |
| CCc1ccc(N(Cc2ccc(C)nc2)C(=O)Nc2c(CC)c(N)cc(Cl)c2CC)cc1 [compound 106, 3-(3-amino-5-chloro-2,6-diethyl-phenyl)-1-(4-ethyl-phenyl)-1-(6-methyl-pyridin-3-ylmethyl)-urea] | 0.00 | 83 (≈ 37.4 µg/mL) |  | 22.3 |
| CCc1ccc(N(C(=O)Nc2c(CC)c(N)cc(Cl)c2CC)C(C)c2ccc3c(c2)ncn3C)cc1 (stereo not drawn) [compound 122, 3-(3-amino-5-chloro-2,6-diethyl-phenyl)-1-(4-ethyl-phenyl)-1-[1-(1-methyl-1H-benzoimidazol-5-yl)-ethyl]-urea] | 0.00 | 29 (≈ 14.6 µg/mL) |  | 3.5 |

Reference: patent publication US8071810B2, “C5a receptor antagonists” (Jerini AG, priority 2005, dated 2011)
